The nature of experiment [1]: Inhibition of BRAF V600E mutant in human A375 cells assessed as reduction in cell proliferation incubated for 96 hrs by MTT assay. In general terms: Tetrazolium dyes change colour on reduction, which living cells bring about.
Experiment [2] is described as follows: Inhibition of BCR-ABL (unknown origin) expressed in mouse BA/F3 cells assessed as reduction in cell proliferation incubated for 48 hrs by MTT assay.

This passage reports IC50 results from BindingDB's records for doi:10.1016/j.ejmech.2018.01.053 (University of Southern California, 2018).

`CC(C)n1nc(C#Cc2cccc3cc(-c4cccc(C(F)(F)F)c4)ncc23)c2c(N)ncnc21`: the IC50 in experiment [1] was more than 10 µM; in experiment [2], 0.942 µM.

Consider `CC(C)n1nc(C#Cc2cccc(NC(=O)c3cccc(C(F)(F)F)c3)c2)c2c(N)ncnc21`, for which, in experiment [1], the IC50 worked out at 0.097 µM.

For the compound `CC(C)n1nc(C#Cc2cccc3cc(-c4ccc(CN5CCN(C)CC5)cc4)ncc23)c2c(N)ncnc21`, the IC50 in experiment [1] is more than 10 µM; in experiment [2], 0.354 µM.

On to `Cc1ccc2cc(-c3cccc(C(F)(F)F)c3)ncc2c1C#Cc1nn(C(C)C)c2ncnc(N)c12`, for which the IC50 is 2.3 µM in experiment [1] and 0.435 µM in experiment [2].

Consider `CCn1nc(C#Cc2cccc3cc(-c4cccc(C(F)(F)F)c4)ncc23)c2c(N)ncnc21`, for which the IC50 in experiment [1] was more than 10 µM; in experiment [2] it was 1.11 µM.

By IC50 is commonly meant the concentration at which inhibition is half-maximal.
